Data as given in article PMC10629879 (Frontiers in drug delivery, 2022).

What was measured:
[1] = tested on: isolated mouse brain microvessels; assay: 125I-insulin surface binding and internalization in isolated brain microvessels with endocytosis inhibitors; assay type: cell-based; details: relative to vehicle; for amount of 125I-insulin internalized, difference vs vehicle (increase): inhibitor 15 min 37°C (monensin 10 μM, p = 0.079 not significant; CPZ 2.8 mM in 20% MeOH, p = 0.018), then 125I-insulin 15 min 37°C, cytoplasmic + membrane fraction; for microvessel surface binding of 125I-insulin, difference vs vehicle (increase): ~90 μg protein, inhibitor 15 min 37°C (monensin 10 μM; CPZ 2.8 mM in 20% MeOH), then 125I-insulin 400,000 CPM 15 min 37°C, acid-wash reversible binding, gamma counter, 2-3 biological replicates
Experimental: Whole brains were pooled and homogenized in chilled isolation buffer (DMEM, 25 mM HEPES, pH 7.4, 1% (w/v) dextran and 0.5% BSA) with a Dounce homogenizer. A range of 8–20 brains were pooled each experimental day. The homogenate was poured once through a 300 μm mesh, then twice through a 100 μm mesh. The filtrate was combined with an equivalent volume of chilled 40% dextran in isolation buffer and centrifuged at 3000 g for 30 min at 4°C. The pellet was resuspended in 1 ml of isolation buffer and pipetted twice through a 20 μm pluriStrainer® mesh (pluriSelect Life Science, Leipzig, Germany), before a final rinse with isolation buffer. […] The pellet was resuspended in 1 ml of PBS and spun at 500 g for 3 min at 4°C three times.
Briefly, the suspended pellet was evenly split between treatment groups, with two technical replicates per group. On average, each binding assay involved approximately 90 μg protein from the isolated microvessels in 40–45 μL. Each study was repeated with separate isolated microvessels for 2-3 biological replicates per study. Microvessels were treated with vehicle or an endocytosis inhibitor. Inhibitors were made up in incubation buffer and/or MeOH. Final concentrations for inhibitors include: monensin (10 μM), CPZ (2.8 mM in 20% MeOH), and filipin III (2 μg/ml in 0.2% MeOH) with respective vehicle MeOH controls. […] Samples were centrifuged at 10,000 g for 2 min at 4°C, and the supernatants were collected. The pellets were resuspended in incubation buffer, centrifuged at 4,225 g for 2 min at 4°C, and the supernatants were combined with the previous ones. The radioactivity in the pellets and combined supernatants were measured in a gamma counter (Wizard^2, PerkinElmer). In order to determine the amount of substrate bound to the cell surface, the pellet was resuspended in 400 μL of chilled acid wash buffer (0.2 M glycine, 0.15 M NaCl) to strip the surface of reversibly bound substrates on ice for 6 min, centrifuged at 4,225 g for 2 min at 4°C. The supernatant was collected and measured in a gamma counter as before to determine the amount of reversible binding (RB) at the plasma membrane, which we have called surface binding. To determine the amount of substrate internalized, the pellet was resuspended in 400 μL of chilled 1% BSA in deionized water and incubated for 1 h on ice to lyse the cells. The sample was centrifuged as before, the supernatant was collected, and the pellet was suspended again in 1% BSA and incubated on ice for 30 min. The sample was centrifuged, the supernatant was combined with the previous one, and both supernatant and pellet were measured in a gamma counter. […]
Percentages were calculated by dividing the measurement of interest (surface binding or internalization) by the total counts present in the sample and multiplying by 100. […]

insulin receptor = molecular target: T1, insulin receptor (Mus musculus, UniProt P15208); assay: In vivo regional 125I-S961 binding at the BBB after IV monensin pre-treatment; details: 30 min IV pre-treatment, 100 μL of 50 μM monensin in 10% MeOH in 0.1% BSA/LR; 125I-S961 circulated 5 min; olfactory bulb and 10 brain regions; two-way ANOVA treatment p = 0.0008, no post hoc differences; n = 6/group
T1 construct: from tissue; host or cells: living mouse; brain vasculature (olfactory bulb and 10 dissected brain regions)
T1 sequence (P15208 28-748 limits assumed): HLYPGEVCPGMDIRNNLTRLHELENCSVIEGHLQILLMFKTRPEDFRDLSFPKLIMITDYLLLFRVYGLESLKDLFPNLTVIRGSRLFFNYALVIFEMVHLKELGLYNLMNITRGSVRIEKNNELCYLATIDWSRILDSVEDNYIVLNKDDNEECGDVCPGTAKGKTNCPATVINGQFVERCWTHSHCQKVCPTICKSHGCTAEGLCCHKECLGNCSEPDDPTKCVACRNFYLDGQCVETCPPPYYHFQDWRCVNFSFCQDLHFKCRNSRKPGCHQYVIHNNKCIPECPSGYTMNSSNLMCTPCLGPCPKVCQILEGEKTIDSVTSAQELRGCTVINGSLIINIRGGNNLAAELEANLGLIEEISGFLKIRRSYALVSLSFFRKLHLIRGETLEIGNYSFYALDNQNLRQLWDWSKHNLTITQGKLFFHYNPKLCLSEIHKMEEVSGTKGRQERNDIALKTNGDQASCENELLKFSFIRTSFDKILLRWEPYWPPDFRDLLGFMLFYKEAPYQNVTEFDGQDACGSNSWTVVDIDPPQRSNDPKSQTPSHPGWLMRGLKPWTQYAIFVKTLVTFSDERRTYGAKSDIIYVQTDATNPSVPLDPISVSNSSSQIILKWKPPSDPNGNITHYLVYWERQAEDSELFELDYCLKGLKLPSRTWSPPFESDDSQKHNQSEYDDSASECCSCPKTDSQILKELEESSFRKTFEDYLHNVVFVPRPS
T1 sequence (P15208 753-1372 partner limits assumed): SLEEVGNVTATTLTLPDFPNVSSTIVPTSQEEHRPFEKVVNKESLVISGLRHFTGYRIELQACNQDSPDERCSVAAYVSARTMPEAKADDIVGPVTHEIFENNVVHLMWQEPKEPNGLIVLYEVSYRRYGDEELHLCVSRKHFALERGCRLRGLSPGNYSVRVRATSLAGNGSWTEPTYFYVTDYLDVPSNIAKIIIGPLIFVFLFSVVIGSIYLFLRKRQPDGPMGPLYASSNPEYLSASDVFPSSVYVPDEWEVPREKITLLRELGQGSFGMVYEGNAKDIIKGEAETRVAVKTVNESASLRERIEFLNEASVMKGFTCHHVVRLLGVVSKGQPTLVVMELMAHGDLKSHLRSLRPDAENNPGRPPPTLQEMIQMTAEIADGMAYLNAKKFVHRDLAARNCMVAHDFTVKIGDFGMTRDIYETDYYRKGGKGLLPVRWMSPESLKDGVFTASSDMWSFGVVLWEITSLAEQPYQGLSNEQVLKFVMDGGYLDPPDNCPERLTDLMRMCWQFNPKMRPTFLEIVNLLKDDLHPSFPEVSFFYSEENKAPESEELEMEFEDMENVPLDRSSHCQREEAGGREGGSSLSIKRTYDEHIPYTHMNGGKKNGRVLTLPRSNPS
Experimental: In anesthetized mice, the jugular vein was exposed and a 100 μL IV injection containing vehicle (10% MeOH in 0.1% BSA/LR) or monensin (50 μM in 10% MeOH in 0.1% BSA/LR) was administered. Thirty min later, a second 100 μL IV injection containing 1 × 10^6 ^125I-[…] was administered and circulated for 5 min. Blood was collected from the descending aorta, the olfactory bulbs and whole brains removed, and whole brains dissected into 10 brain regions according to the method by [Glowinski and Iversen, (1966)]. The amount of radioactivity in each region was counted in a gamma counter (Wizard^2, PerkinElmer) and corrected for the % injected ^125I-[…] (based on injection checks) and divided by the weight of the tissue (g) to get %Inj/g levels.

blood-brain barrier [2] = assay type: in vivo, mouse; details: 50 μM monensin IV pre-treatment 30 min vs vehicle
Experimental: The reaction started with the addition of 10 μg chloramine-T in 0.25 M PB and terminated 1 min later with addition of 100 μg sodium metabisulfite. ^131I-albumin was labeled was labeled the same way except used 2 mCi ^131I (Perkin-Elmer, Waltham, MA, United States). ^131I-albumin was used as a vascular marker for the ^125I-transferrin multiple-time regression analysis transport studies as previously described ([Rhea et al., 2018]). A Sephadex G-10 column (Sigma-Aldrich) was used to separate labeled peptides and proteins from free iodine. Protein labeling was characterized by 15% trichloroacetic acid (TCA) precipitation. The radioactively labeled substrates we injected were quality-controlled materials, negating the overestimation of free ^125I.
FIGURE 3 Role of clathrin in transferrin hypothalamic BBB transport.

blood-brain barrier [3] = assay: In situ brain perfusion: 125I-insulin BBB transport (Ki) and vascular binding (Vi) after inhibitor pre-perfusion; assay type: in vivo, mouse; details: for effect on 125I-insulin transport (Ki) or vascular binding (Vi) (in words): whole brain or olfactory bulb
Experimental: Following anesthesia, the thoracic cavity was opened and the descending thoracic aorta was clamped and jugular veins were cut to allow blood to drain from the brain vascular space. A 26-gauge butterfly needle was inserted into the left ventricle of the heart and mice were pre-perfused with vehicle or inhibitor at a rate of 2 ml/min. Mice were perfused with vehicle (1% MeOH in Zlokovic buffer: 7.19 g/L NaCl, 0.3 g/L KCl, 0.28 g/L CaCl2, 2.1 g/L NaHCO3, 0.16 g/L KH2PO4, 0.17 g/L anhydrous MgCl2, 0.99 g/L D-glucose and 1% BSA) ± 5 μM monensin or 2 μg/ml filipin III. […] Mice were perfused for timepoints ranging from 0.5 to 5 min. Whole brains, olfactory bulbs, and the hypothalamus were collected, weighed, and measured for radioactivity in a gamma counter. Brain/perfusate ratios (μL/g) were calculated by dividing the cpm per Gram of tissue by the cpm per μL of perfusate and plotted against perfusion time.
Regression analysis and other statistical analyses were performed using Prism 8.0 (GraphPad Software Inc., San Diego, CA, United States). For microvessel binding assays, the means are reported with their standard error terms and compared by a Student’s t test was. p values less than 0.05 were considered statistically significant. For in situ brain perfusion studies, linear regressions were performed on the brain/serum or brain/perfusate ratios using GraphPad Prism software. Linear regression lines were compared statistically with the Prism 8.0 software package. They are reported with their correlation coefficients (r) and linear regression p values.

[4] = hypothalamus, 2 μg/ml filipin pre-perfusion 10 min
[5] = olfactory bulb, 2 μg/ml filipin pre-perfusion 10 min
[6] = whole brain, 2 μg/ml filipin pre-perfusion 10 min

SMILES: CC[C@@]1([C@@H]2O[C@@H]([C@H]3O[C@@](O)(CO)[C@H](C)C[C@@H]3C)C[C@@H]2C)CC[C@H]([C@]2(C)CC[C@]3(C[C@H](O)[C@@H](C)[C@@H]([C@@H](C)[C@@H](OC)[C@H](C)C(=O)O)O3)O2)O1 [Monensin]
- amount of 125I-insulin internalized, difference vs vehicle (increase) [1]: 33.7%
- microvessel surface binding of 125I-insulin, difference vs vehicle (increase) [1]: 36.3%
- 125I-S961 binding (%Inj/g), effect of pre-treatment (in words) (insulin receptor): significantly increased
- decrease in hypothalamic BBB transport of 125I-transferrin (blood-brain barrier [2]): 80%
- effect on 125I-insulin transport (Ki) or vascular binding (Vi) (in words) (blood-brain barrier [3]; 5 μM monensin pre-treatment 10 min): no effect

SMILES: CN(C)CCCN1c2ccccc2Sc2ccc(Cl)cc21 [CPZ, chlorpromazine]
- amount of 125I-insulin internalized, difference vs vehicle (increase) [1]: 76.9%
- microvessel surface binding of 125I-insulin, difference vs vehicle (increase) [1]: 42.2%

SMILES: CCCCC[C@@H](O)[C@H]1C(=O)O[C@H](C)[C@@H](O)/C=C/C=C/C=C/C=C/C=C(\C)[C@@H](O)C[C@H](O)C[C@H](O)C[C@H](O)C[C@H](O)C[C@H](O)C[C@@H]1O [Filipin, Filipin III]
- Vi of 125I-insulin (blood-brain barrier [3]; [4]): 8.4 ± 2.3 µL/g
- effect on 125I-insulin transport (Ki) (in words) (blood-brain barrier [3]; [4]): does limit transport
- Ki of 125I-insulin (blood-brain barrier [3]; hypothalamus, 2 μg/ml filipin pre-perfusion 10 min, ns, slope did not significantly differ from zero): 0.94 ± 0.66 µL/g/min
- Ki of 125I-insulin (blood-brain barrier [3]; hypothalamus, 2 μg/ml filipin pre-perfusion 10 min, ns, slope did not significantly differ from zero, listed as filipin): 0.94 ± 0.43 µL/g/min
- Ki of 125I-insulin (blood-brain barrier [3]; [5]): 3.06 ± 0.93 µL/g/min
- Vi of 125I-insulin (blood-brain barrier [3]; [5]): 2.8 ± 3.0 µL/g
- effect on 125I-insulin transport (Ki) or vascular binding (Vi) (in words) (blood-brain barrier [3]; 2 μg/ml filipin pre-perfusion 10 min): no effect
- Ki of 125I-insulin (blood-brain barrier [3]; [6]): 0.94 ± 0.43 µL/g/min
- Vi of 125I-insulin (blood-brain barrier [3]; [6]): 5.0 ± 1.5 µL/g
